Experimental data reported in ChEMBL document CHEMBL1201862, “PubChem BioAssay data set” (2004).
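Step 1: Grow cells in 96-well plates. Step 2: Expose to compound for 48 hours at 5 concentrations. Step 3: Interpolate endpoints linearly; if unreached, use highest concentration. GI50 is the concentration that inhibits growth by half.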 Activity calls are given as the source filed them. Cut-off read from the data, not from the text of the source: active = GI50 up to about 1.1 µM and inactive = higher.

Experiments:
Assay in all cases: DTP human tumour cell line panel, 48 h
786-0 = test system: 786-0
A549 = test system: A549
HL-60 = test system: HL-60
HOP-62 = test system: HOP-62
HOP-92 = test system: HOP-92
Hs-578T = test system: Hs-578T
LOX IMVI = test system: LOX IMVI
MDA-MB-231 = test system: MDA-MB-231
MDA-MB-435 = test system: MDA-MB-435
Malme-3M = test system: Malme-3M
OVCAR-3 = test system: OVCAR-3
PC-3 = test system: PC-3
RPMI-8226 = test system: RPMI-8226
RXF 393 = test system: RXF 393
SF-268 = test system: SF-268
SK-MEL-28 = test system: SK-MEL-28
SN12C = test system: SN12C
SNB-75 = test system: SNB-75
T47D = test system: T47D
UACC-257 = test system: UACC-257

Structure (SMILES)	GI50 (786-0)	GI50 (A549)	GI50 (HL-60)	GI50 (HOP-62)	GI50 (HOP-92)	GI50 (Hs-578T)	GI50 (LOX IMVI)	GI50 (MDA-MB-231)	GI50 (MDA-MB-435)	GI50 (Malme-3M)	GI50 (OVCAR-3)	GI50 (PC-3)	GI50 (RPMI-8226)	GI50 (RXF 393)	GI50 (SF-268)	GI50 (SK-MEL-28)	GI50 (SN12C)	GI50 (SNB-75)	GI50 (T47D)	GI50 (UACC-257)
O=c1[nH]c2nc3ccccc3c(=O)n2/c1=C/c1ccccc1	25.8 µM (inactive)	> 100 µM (inactive)	56.1 µM (inactive)	> 100 µM (inactive)	20.7 µM (inactive)	29 µM (inactive)	25.2 µM (inactive)	> 100 µM (inactive)	21.9 µM (inactive)	38.6 µM (inactive)	22 µM (inactive)	92 µM (inactive)	34.9 µM (inactive)	55 µM (inactive)	20.6 µM (inactive)	45.1 µM (inactive)	25.1 µM (inactive)	30.5 µM (inactive)	40.4 µM (inactive)	23.7 µM (inactive)
COC(=O)CCC(C)[C@H]1CCC2C3CC[C@@H]4CC5(CC[C@]4(C)C3C[C@H](OC(C)=O)[C@@]21C)OOC1(CCCCC1)OO5 (stereo partly drawn)	12.1 µM (inactive)	9.77 µM (inactive)	2.49 µM (inactive)	8.89 µM (inactive)	46.6 µM (inactive)	13.4 µM (inactive)		> 100 µM (inactive)	7.35 µM (inactive)	4.03 µM (inactive)	15.3 µM (inactive)	6.55 µM (inactive)	1.94 µM (inactive)	> 100 µM (inactive)	19.7 µM (inactive)	27.7 µM (inactive)	> 100 µM (inactive)	55.2 µM (inactive)	2.75 µM (inactive)	4.49 µM (inactive)
Clc1ncc(Cl)c(Cl)n1	1.99 µM (inactive)	12.1 µM (inactive)	0.474 µM (active)	16.5 µM (inactive)	1.81 µM (inactive)	2.72 µM (inactive)	1.17 µM (inactive)	3.03 µM (inactive)	2.65 µM (inactive)	1.88 µM (inactive)	6.5 µM (inactive)	2.45 µM (inactive)	0.455 µM (active)	2.05 µM (inactive)	9.12 µM (inactive)	3.42 µM (inactive)	1.73 µM (inactive)	2.84 µM (inactive)	2.36 µM (inactive)	5.22 µM (inactive)
O=C(O)C1(Cc2ccccc2)Cc2cc3c(cc2C1)CCC3	> 100 µM (inactive)	51.4 µM (inactive)	48.9 µM (inactive)	99.3 µM (inactive)	21 µM (inactive)	75.2 µM (inactive)	> 100 µM (inactive)	> 100 µM (inactive)	> 100 µM (inactive)	> 100 µM (inactive)	> 100 µM (inactive)	> 100 µM (inactive)	58.1 µM (inactive)	> 100 µM (inactive)	78.9 µM (inactive)	> 100 µM (inactive)	> 100 µM (inactive)	> 100 µM (inactive)	18.3 µM (inactive)	> 100 µM (inactive)
Cn1c(=O)c2c(nc(NCCCCl)n2CC(=O)O)n(C)c1=O	> 100 µM (inactive)	> 100 µM (inactive)	> 100 µM (inactive)	> 100 µM (inactive)	> 100 µM (inactive)	> 100 µM (inactive)	> 100 µM (inactive)	> 100 µM (inactive)	> 100 µM (inactive)		> 100 µM (inactive)	> 100 µM (inactive)	> 100 µM (inactive)	> 100 µM (inactive)	> 100 µM (inactive)	> 100 µM (inactive)	> 100 µM (inactive)	> 100 µM (inactive)	> 100 µM (inactive)	> 100 µM (inactive)
CCOC(=O)/C(C#N)=C/c1coc2cc(C)cc(C)c2c1=O	> 100 µM (inactive)	> 100 µM (inactive)	> 100 µM (inactive)	> 100 µM (inactive)	95.1 µM (inactive)	> 100 µM (inactive)	> 100 µM (inactive)	> 100 µM (inactive)	> 100 µM (inactive)	45.3 µM (inactive)	64.9 µM (inactive)	> 100 µM (inactive)	> 100 µM (inactive)	> 100 µM (inactive)	66.4 µM (inactive)	> 100 µM (inactive)	> 100 µM (inactive)	> 100 µM (inactive)	> 100 µM (inactive)	> 100 µM (inactive)
O=c1c2ccccc2nc(Nc2cccc(Cl)c2)n1/N=C/C=C/c1ccccc1	48.5 µM (inactive)	75.3 µM (inactive)	> 100 µM (inactive)	85.5 µM (inactive)	91.2 µM (inactive)	62.8 µM (inactive)	> 100 µM (inactive)	71 µM (inactive)	> 100 µM (inactive)	> 100 µM (inactive)	73.1 µM (inactive)	33.7 µM (inactive)	> 100 µM (inactive)	> 100 µM (inactive)	53 µM (inactive)	> 100 µM (inactive)	52.6 µM (inactive)	45.4 µM (inactive)	64.9 µM (inactive)	85.9 µM (inactive)
